Measurements from ChEMBL document CHEMBL2151017, “Inhibition of α-glucosidase and α-amylase by diaryl derivatives of imidazole-thione and 1,2,4-triazole-thiol” (Eur J Med Chem, 2011).
The source made the active and inactive calls. The rule behind the calls is not given here.

Legend:
[1] = Toxicity in po dosed Spanish V-line rabbit assessed as mortality after 24 hrs; assay type: organism-based, Oryctolagus cuniculus; settings: in vivo
Oryctolagus cuniculus [2] = assay: In vivo inhibition of Spanish V-line rabbit liver alpha-glucosidase assessed as specific enzyme activity per mg protein using maltose as substrate at 10% LD50, po after 8 hrs; assay type: functional
Oryctolagus cuniculus [3] = assay: In vivo inhibition of Spanish V-line rabbit liver alpha-glucosidase assessed as specific enzyme activity per mg protein using maltose as substrate at 10% LD50, po after 16 hrs; assay type: functional
Oryctolagus cuniculus [4] = assay: In vivo inhibition of Spanish V-line rabbit liver alpha-glucosidase assessed as specific enzyme activity per mg protein using maltose as substrate at 10% LD50, po after 24 hrs; assay type: functional
Oryctolagus cuniculus [5] = assay: In vivo inhibition of Spanish V-line rabbit liver alpha-glucosidase assessed as specific enzyme activity per mg protein using maltose as substrate at 10% LD50, po after 48 hrs; assay type: functional
Oryctolagus cuniculus [6] = assay: In vivo inhibition of Spanish V-line rabbit liver alpha-glucosidase assessed as specific enzyme activity per mg protein using maltose as substrate at 10% LD50, po after 72 hrs; assay type: functional
Oryctolagus cuniculus [7] = assay: In vivo inhibition of Spanish V-line rabbit liver alpha-glucosidase assessed as specific enzyme activity per mg protein using maltose as substrate at 10% LD50, po after 96 hrs; assay type: functional
Oryctolagus cuniculus [8] = assay: In vivo inhibition of Spanish V-line rabbit liver alpha-amylase assessed as specific enzyme activity per mg protein using starch as substrate at 10% LD50, po after 8 hrs; assay type: functional
Oryctolagus cuniculus [9] = assay: In vivo inhibition of Spanish V-line rabbit liver alpha-amylase assessed as specific enzyme activity per mg protein using starch as substrate at 10% LD50, po after 16 hrs; assay type: functional
Oryctolagus cuniculus [10] = assay: In vivo inhibition of Spanish V-line rabbit liver alpha-amylase assessed as specific enzyme activity per mg protein using starch as substrate at 10% LD50, po after 24 hrs; assay type: functional
Oryctolagus cuniculus [11] = assay: In vivo inhibition of Spanish V-line rabbit liver alpha-amylase assessed as specific enzyme activity per mg protein using starch as substrate at 10% LD50, po after 48 hrs; assay type: functional
Oryctolagus cuniculus [12] = assay: In vivo inhibition of Spanish V-line rabbit liver alpha-amylase assessed as specific enzyme activity per mg protein using starch as substrate at 10% LD50, po after 72 hrs; assay type: functional
Oryctolagus cuniculus [13] = assay: In vivo inhibition of Spanish V-line rabbit liver alpha-amylase assessed as specific enzyme activity per mg protein using starch as substrate at 10% LD50, po after 96 hrs; assay type: functional
Oryctolagus cuniculus [14] = assay: In vivo inhibition of Spanish V-line rabbit liver alpha-amylase assessed as specific enzyme activity per mg protein using starch as substrate at 10% LD50, po after 120 hrs; assay type: functional
Oryctolagus cuniculus [15] = assay: In vivo inhibition of Spanish V-line rabbit alpha-glucosidase using maltose as substrate at 25% LD50, po after 24 hrs relative to control; assay type: functional
Oryctolagus cuniculus [16] = assay: In vivo inhibition of Spanish V-line rabbit liver alpha-glucosidase assessed as specific enzyme activity per mg protein using maltose as substrate at 10% LD50, po after 120 hrs; assay type: functional
Oryctolagus cuniculus [17] = assay: In vivo inhibition of alpha-glucosidase in po dosed Spanish V-line rabbit using maltose as substrate after 24 hrs; assay type: functional, organism-based
Oryctolagus cuniculus [18] = assay: In vivo inhibition of alpha-amylase in po dosed Spanish V-line rabbit using starch as substrate at after 24 hrs; assay type: functional, organism-based
Oryctolagus cuniculus [19] = assay: In vivo inhibition of Spanish V-line rabbit alpha-amylase using starch as substrate at 25% LD50, po after 24 hrs relative to control; assay type: functional
[20] = Inhibition of Spanish V-line rabbit liver alpha-glucosidase using maltose as substrate after 5 mins by spectrophotometry; parameters: species or system Oryctolagus cuniculus
[21] = Inhibition of Spanish V-line rabbit liver alpha-amylase using starch as substrate after 5 mins by spectrophotometry; parameters: species or system Oryctolagus cuniculus
Oryctolagus cuniculus [22] = species: Oryctolagus cuniculus; assay: Reversible Inhibition of Spanish V-line rabbit liver alpha-glucosidase using maltose as substrate compound preincubated for 60 mins by dialysis method
Oryctolagus cuniculus [23] = species: Oryctolagus cuniculus; assay: Reversible Inhibition of Spanish V-line rabbit liver alpha-amylase using starch as substrate compound preincubated for 60 mins by dialysis method
Oryctolagus cuniculus [24] = species: Oryctolagus cuniculus; assay: Inhibition of Spanish V-line rabbit liver alpha-glucosidase using maltose as substrate assessed per mg protein at 16 uM by Lineweaver-Burk plot ( RVb = 53 +/- 5 10^-3 uM/min/mg protein )
Oryctolagus cuniculus [25] = species: Oryctolagus cuniculus; assay: Inhibition of Spanish V-line rabbit liver alpha-glucosidase using maltose as substrate assessed per mg protein at 32 uM by Lineweaver-Burk plot ( RVb = 53 +/- 5 10^-3 uM/min/mg protein )
Oryctolagus cuniculus [26] = species: Oryctolagus cuniculus; assay: Inhibition of Spanish V-line rabbit liver alpha-glucosidase using maltose as substrate assessed per mg protein at 64 uM by Lineweaver-Burk plot ( RVb = 53 +/- 5 10^-3 uM/min/mg protein )
Oryctolagus cuniculus [27] = species: Oryctolagus cuniculus; assay: Inhibition of Spanish V-line rabbit liver alpha-amylase using starch as substrate assessed per mg protein at 16 uM by Lineweaver-Burk plot ( RVb = 9.0 +/- 0.8 10^-3 uM/min/mg protein )
Oryctolagus cuniculus [28] = species: Oryctolagus cuniculus; assay: Inhibition of Spanish V-line rabbit liver alpha-amylase using starch as substrate assessed per mg protein at 32 uM by Lineweaver-Burk plot ( RVb = 9.0 +/- 0.8 10^-3 uM/min/mg protein )
Oryctolagus cuniculus [29] = species: Oryctolagus cuniculus; assay: Inhibition of Spanish V-line rabbit liver alpha-amylase using starch as substrate assessed per mg protein at 64 uM by Lineweaver-Burk plot ( RVb = 9.0 +/- 0.8 10^-3 uM/min/mg protein )
Oryctolagus cuniculus [30] = species: Oryctolagus cuniculus; assay: Inhibition of Spanish V-line rabbit liver alpha-glucosidase using maltose as substrate assessed per mg protein at 48 uM by Lineweaver-Burk plot ( RVb = 53 +/- 5 10^-3 uM/min/mg protein )
Oryctolagus cuniculus [31] = species: Oryctolagus cuniculus; assay: Inhibition of Spanish V-line rabbit liver alpha-amylase using starch as substrate assessed per mg protein at 48 uM by Lineweaver-Burk plot ( RVb = 9.0 +/- 0.8 10^-3 uM/min/mg protein )
[32] = Competitive inhibition of Spanish V-line rabbit liver alpha-glucosidase using maltose as substrate by Dixon plot analysis; parameters: species or system Oryctolagus cuniculus
[33] = Competitive inhibition of Spanish V-line rabbit liver alpha-glucosidase using maltose as substrate by Lineweaver-Burk plot analysis; parameters: species or system Oryctolagus cuniculus
[34] = Non-competitive inhibition of Spanish V-line rabbit liver alpha-amylase using starch as substrate by Lineweaver-Burk plot analysis; parameters: species or system Oryctolagus cuniculus
[35] = Non-competitive inhibition of Spanish V-line rabbit liver alpha-amylase using starch as substrate by Dixon plot analysis; parameters: species or system Oryctolagus cuniculus
Oryctolagus cuniculus [36] = species: Oryctolagus cuniculus; assay: Competitive inhibition of Spanish V-line rabbit liver alpha-glucosidase using maltose as substrate
Oryctolagus cuniculus [37] = species: Oryctolagus cuniculus; assay: Non-competitive inhibition of Spanish V-line rabbit liver alpha-amylase using starch as substrate
Oryctolagus cuniculus [38] = species: Oryctolagus cuniculus; assay: Inhibition of Spanish V-line rabbit liver alpha-glucosidase using maltose as substrate assessed per mg protein at 12 uM by Lineweaver-Burk plot ( RVb = 55 +/- 5.2 10^-3 uM/min/mg protein )
Oryctolagus cuniculus [39] = species: Oryctolagus cuniculus; assay: Inhibition of Spanish V-line rabbit liver alpha-glucosidase using maltose as substrate assessed per mg protein at 24 uM by Lineweaver-Burk plot ( RVb = 55 +/- 5.2 10^-3 uM/min/mg protein )
Oryctolagus cuniculus [40] = species: Oryctolagus cuniculus; assay: Inhibition of Spanish V-line rabbit liver alpha-glucosidase using maltose as substrate assessed per mg protein at 36 uM by Lineweaver-Burk plot ( RVb = 55 +/- 5.2 10^-3 uM/min/mg protein )
Oryctolagus cuniculus [41] = species: Oryctolagus cuniculus; assay: Inhibition of Spanish V-line rabbit liver alpha-glucosidase using maltose as substrate assessed per mg protein at 48 uM by Lineweaver-Burk plot ( RVb = 55 +/- 5.2 10^-3 uM/min/mg protein )
Oryctolagus cuniculus [42] = species: Oryctolagus cuniculus; assay: Inhibition of Spanish V-line rabbit liver alpha-amylase using starch as substrate assessed per mg protein at 12 uM by Lineweaver-Burk plot ( RVb = 9.0 +/- 0.8 10^-3 uM/min/mg protein )
Oryctolagus cuniculus [43] = species: Oryctolagus cuniculus; assay: Inhibition of Spanish V-line rabbit liver alpha-amylase using starch as substrate assessed per mg protein at 24 uM by Lineweaver-Burk plot ( RVb = 9.0 +/- 0.8 10^-3 uM/min/mg protein )
Oryctolagus cuniculus [44] = species: Oryctolagus cuniculus; assay: Inhibition of Spanish V-line rabbit liver alpha-amylase using starch as substrate assessed per mg protein at 36 uM by Lineweaver-Burk plot ( RVb = 9.0 +/- 0.8 10^-3 uM/min/mg protein )
[45] = Non-competitive inhibition of Spanish V-line rabbit liver alpha-glucosidase using maltose as substrate by Dixon plot analysis; parameters: species or system Oryctolagus cuniculus
[46] = Non-competitive inhibition of Spanish V-line rabbit liver alpha-glucosidase using maltose as substrate by Lineweaver-Burk plot analysis; parameters: species or system Oryctolagus cuniculus
Oryctolagus cuniculus [47] = species: Oryctolagus cuniculus; assay: Non-competitive inhibition of Spanish V-line rabbit liver alpha-glucosidase using maltose as substrate
Oryctolagus cuniculus [48] = species: Oryctolagus cuniculus; assay: Inhibition of Spanish V-line rabbit liver alpha-glucosidase using maltose as substrate assessed per mg protein at 16 uM by Lineweaver-Burk plot ( RVb = 55 +/- 5 10^-3 uM/min/mg protein )
Oryctolagus cuniculus [49] = species: Oryctolagus cuniculus; assay: Inhibition of Spanish V-line rabbit liver alpha-glucosidase using maltose as substrate assessed per mg protein at 32 uM by Lineweaver-Burk plot ( RVb = 55 +/- 5 10^-3 uM/min/mg protein )
Oryctolagus cuniculus [50] = species: Oryctolagus cuniculus; assay: Inhibition of Spanish V-line rabbit liver alpha-glucosidase using maltose as substrate assessed per mg protein at 48 uM by Lineweaver-Burk plot ( RVb = 55 +/- 5 10^-3 uM/min/mg protein )
Oryctolagus cuniculus [51] = species: Oryctolagus cuniculus; assay: Inhibition of Spanish V-line rabbit liver alpha-glucosidase using maltose as substrate assessed per mg protein at 64 uM by Lineweaver-Burk plot ( RVb = 55 +/- 5 10^-3 uM/min/mg protein )
Oryctolagus cuniculus [52] = species: Oryctolagus cuniculus; assay: Inhibition of Spanish V-line rabbit liver alpha-amylase using starch as substrate

Compound	LD50 at 24 h [1] [mg/kg]	Activity (Oryctolagus cuniculus [2]) [µM/min]	Activity (Oryctolagus cuniculus [3]) [µM/min]	Activity (Oryctolagus cuniculus [4]) [µM/min]	Activity (Oryctolagus cuniculus [5]) [µM/min]	Activity (Oryctolagus cuniculus [6]) [µM/min]	Activity (Oryctolagus cuniculus [7]) [µM/min]	Activity (Oryctolagus cuniculus [8]) [µM/min]	Activity (Oryctolagus cuniculus [9]) [µM/min]	Activity (Oryctolagus cuniculus [10]) [µM/min]	Activity (Oryctolagus cuniculus [11]) [µM/min]	Activity (Oryctolagus cuniculus [12]) [µM/min]	Activity (Oryctolagus cuniculus [13]) [µM/min]	Activity (Oryctolagus cuniculus [14]) [µM/min]	inhibition (INH) (Oryctolagus cuniculus [15]) [%]	Activity (Oryctolagus cuniculus [16]) [µM/min]	inhibition (Oryctolagus cuniculus [17])	inhibition (Oryctolagus cuniculus [18])	inhibition (INH) (Oryctolagus cuniculus [19]) [%]	IC50 [20] [µM]	further results
Sc1nnc(-c2ccccc2)n1-c1ccccc1	107	18.6	16.7	15.4	16.1	18.5	19.8	4.5	4.1	3.7	4	4.3	4.6	4.7	50	19.9	Dose-dependent effect	Dose-dependent effect	46	67	IC50 [21]: 73 µM; inhibition (Oryctolagus cuniculus [22]): Active; inhibition (Oryctolagus cuniculus [23]): Active; Vmax (Oryctolagus cuniculus [24]): 20 nM/min; Vmax (Oryctolagus cuniculus [25]): 18 nM/min; Vmax (Oryctolagus cuniculus [26]): 12.5 nM/min; Vmax (Oryctolagus cuniculus [27]): 8 nM/min; Vmax (Oryctolagus cuniculus [28]): 6.3 nM/min; Vmax (Oryctolagus cuniculus [29]): 5.3 nM/min; Vmax (Oryctolagus cuniculus [30]): 16.6 nM/min; Vmax (Oryctolagus cuniculus [31]): 5.4 nM/min; Ki [32]: 38 µM; Ki [33]: 42 µM; Ki [34]: 72 µM; Ki [35]: 65 µM; inhibition (Oryctolagus cuniculus [36]): Dose-dependent effect; inhibition (Oryctolagus cuniculus [37]): Dose-dependent effect
S=C1N=C(c2ccccc2)C(c2ccccc2)=N1	204	17.6	15.2	14.3	15.6	16.9	19.3	3.8	3.1	2.3	2.9	3.3	4.3	4.4	62	23.5	Dose-dependent effect	Dose-dependent effect	53	56	Vmax (Oryctolagus cuniculus [38]): 41 nM/min; IC50 [21]: 47 µM; inhibition (Oryctolagus cuniculus [22]): Active; inhibition (Oryctolagus cuniculus [23]): Active; Vmax (Oryctolagus cuniculus [39]): 33 nM/min; Vmax (Oryctolagus cuniculus [40]): 27 nM/min; Vmax (Oryctolagus cuniculus [41]): 2.4 nM/min; Vmax (Oryctolagus cuniculus [42]): 8.3 nM/min; Vmax (Oryctolagus cuniculus [43]): 7.1 nM/min; Vmax (Oryctolagus cuniculus [44]): 6.3 nM/min; Vmax (Oryctolagus cuniculus [31]): 5.5 nM/min; Ki [45]: 43 µM; Ki [46]: 35 µM; Ki [34]: 63 µM; Ki [35]: 60 µM; inhibition (Oryctolagus cuniculus [47]): Dose-dependent effect; inhibition (Oryctolagus cuniculus [37]): Dose-dependent effect
Oc1ccccc1-c1nnc(S)n1-c1ccccc1	155	15.6	14.2	13.1	14.2	15.6	16.2	4.8	4.4	4.3	4.4	4.6	4.8	5.1	57	18.8	Dose-dependent effect	Dose-dependent effect	27	105	inhibition (Oryctolagus cuniculus [22]): Active; inhibition (Oryctolagus cuniculus [23]): Active; Vmax (Oryctolagus cuniculus [27]): 9.3 nM/min; Vmax (Oryctolagus cuniculus [28]): 9.2 nM/min; Vmax (Oryctolagus cuniculus [29]): 8.9 nM/min; Vmax (Oryctolagus cuniculus [31]): 9.5 nM/min; Vmax (Oryctolagus cuniculus [48]): 16.6 nM/min; Vmax (Oryctolagus cuniculus [49]): 15.6 nM/min; Vmax (Oryctolagus cuniculus [50]): 12.5 nM/min; Vmax (Oryctolagus cuniculus [51]): 10.2 nM/min; Ki [32]: 50.8 µM; inhibition (Oryctolagus cuniculus [36]): Dose-dependent effect; inhibition (Oryctolagus cuniculus [52]): Dose-dependent effect
